Activity calls are given as the source filed them. The rule behind the calls is not given here.
What was measured:
[1] = system: A549; assay: Antiproliferative activity against human A549 cells assessed as inhibition of cell proliferation at 2 uM after 72 hrs by MTT assay relative to control; format: functional; conditions: A549, 72 h
[2] = biological target: Epidermal growth factor receptor (Homo sapiens, UniProt P00533); assay: Inhibition of EGFR phosphorylation in human NCI-H1975 cells at 10 uM after 24 hrs by Western blot analysis; format: cell-based; conditions: nci-h1975, 24 h
[3] = biological target: T1, [Pyruvate dehydrogenase (acetyl-transferring)] kinase isozyme 1, mitochondrial (Homo sapiens, UniProt Q15118); assay: Inhibition of PDK1 in human NCI-H1975 cells assessed as switch of pyruvate metabolism from lactate production to oxidative phosphorylation by measuring increase in basal oxygen consumption rate at 10 uM incubated for 4 hrs measured for 16 mins; format: cell-based
[4] = biological target: T1, [Pyruvate dehydrogenase (acetyl-transferring)] kinase isozyme 1, mitochondrial; assay: Inhibition of PDK1 in human NCI-H1975 cells assessed as switch of pyruvate metabolism from lactate production to oxidative phosphorylation by measuring decrease in extracellular acidification rate at 10 uM pretreated for 4 hrs followed by glucose addition for 1 hr measured for 16 mins; format: cell-based
[5] = biological target: T1, [Pyruvate dehydrogenase (acetyl-transferring)] kinase isozyme 1, mitochondrial; assay: Inhibition of PDK1 in human NCI-H1975 cells assessed as switch of pyruvate metabolism from lactate production to oxidative phosphorylation by measuring increase in basal oxygen consumption rate at 10 uM incubated for 4 hrs followed by FCCP addition for 1 hr measured for 16 mins; format: cell-based
[6] = biological target: T1, [Pyruvate dehydrogenase (acetyl-transferring)] kinase isozyme 1, mitochondrial; assay: Inhibition of PDK1 in human NCI-H1975 cells assessed as switch of pyruvate metabolism from lactate production to oxidative phosphorylation by measuring increase in basal oxygen consumption rate at 10 uM incubated for 4 hrs followed by antimycinA addition for 1 hr measured for 16 mins; format: cell-based
[7] = biological target: T1, [Pyruvate dehydrogenase (acetyl-transferring)] kinase isozyme 1, mitochondrial; assay: Binding affinity to recombinant human N-terminal His6/Sumo-tagged PDK1 (29 to 436 residues) expressed in Escherichia coli BL21
[8] = system: NCI-H1650; assay: Antiproliferative activity against human NCI-H1650 cells assessed as inhibition of cell proliferation at 6 uM after 72 hrs by MTT assay relative to control; format: functional; conditions: NCI-H1650, 72 h
[9] = system: A549; assay: Antiproliferative activity against human A549 cells assessed as inhibition of cell proliferation at 6 uM after 72 hrs by MTT assay relative to control; format: functional; conditions: A549, 72 h
[10] = system: NCI-H1650; assay: Antiproliferative activity against human NCI-H1650 cells assessed as inhibition of cell proliferation at 12 uM after 72 hrs by MTT assay relative to control; format: functional; conditions: NCI-H1650, 72 h
[11] = system: NCI-H1650; assay: Antiproliferative activity against human NCI-H1650 cells assessed as inhibition of cell proliferation at 2 uM after 72 hrs by MTT assay relative to control; format: functional; conditions: NCI-H1650, 72 h
[12] = system: NCI-H1975; assay: Antiproliferative activity against human NCI-H1975 cells assessed as inhibition of cell proliferation at 12 uM after 72 hrs by MTT assay relative to control; format: functional; conditions: NCI-H1975, 72 h
[13] = biological target: T1, [Pyruvate dehydrogenase (acetyl-transferring)] kinase isozyme 1, mitochondrial; assay: Inhibition of PDK1 in human NCI-H1975 cells assessed as switch of pyruvate metabolism from lactate production to oxidative phosphorylation by measuring decrease in extracellular acidification rate at 10 uM pretreated for 4 hrs followed by oligomycin addition for 1 hr measured for 16 mins; format: cell-based
[14] = system: NCI-H1975; assay: Antiproliferative activity against human NCI-H1975 cells assessed as inhibition of cell proliferation at 6 uM after 72 hrs by MTT assay relative to control; format: functional; conditions: NCI-H1975, 72 h
[15] = biological target: T1, [Pyruvate dehydrogenase (acetyl-transferring)] kinase isozyme 1, mitochondrial; assay: Inhibition of PDK1 in human NCI-H1975 cells assessed as switch of pyruvate metabolism from lactate production to oxidative phosphorylation by measuring decrease in extracellular acidification rate at 10 uM pretreated for 4 hrs followed by 2DG addition for 1 hr measured for 16 mins; format: cell-based
[16] = Inhibition of ERK phosphorylation in human NCI-H1975 cells at 10 uM after 24 hrs by Western blot analysis; format: cell-based; conditions: nci-h1975, 24 h
[17] = biological target: T1, [Pyruvate dehydrogenase (acetyl-transferring)] kinase isozyme 1, mitochondrial; assay: Inhibition of recombinant human N-terminal His6/Sumo-tagged PDK1 (29 to 436 residues) expressed in Escherichia coli BL21 at 1 uM by kinase-glo luminescence assay relative to control
[18] = biological target: T1, [Pyruvate dehydrogenase (acetyl-transferring)] kinase isozyme 1, mitochondrial; assay: Inhibition of PDK1 in human NCI-H1975 cells assessed as switch of pyruvate metabolism from lactate production to oxidative phosphorylation by measuring increase in basal oxygen consumption rate at 10 uM incubated for 4 hrs followed by oligomycin addition for 1 hr measured for 16 mins; format: cell-based
[19] = system: NCI-H1975; assay: Antiproliferative activity against human NCI-H1975 cells assessed as inhibition of cell proliferation after 72 hrs by MTT assay; format: functional, cell-based; conditions: NCI-H1975, 72 h
[20] = system: A549; assay: Antiproliferative activity against human A549 cells assessed as inhibition of cell proliferation at 12 uM after 72 hrs by MTT assay relative to control; format: functional; conditions: A549, 72 h
[21] = biological target: RAC-alpha serine/threonine-protein kinase (Homo sapiens, UniProt P31749); assay: Inhibition of AKT phosphorylation in human NCI-H1975 cells at 10 uM after 24 hrs by Western blot analysis; format: cell-based; conditions: nci-h1975, 24 h
[22] = system: NCI-H1975; assay: Antiproliferative activity against human NCI-H1975 cells assessed as inhibition of cell proliferation at 2 uM after 72 hrs by MTT assay relative to control; format: functional; conditions: NCI-H1975, 72 h
[23] = organism: Sus scrofa; assay: Inhibition of porcine PDK1 assessed as activation of pyruvate dehydrogenase complex at 80 uM measured after 3 mins relative to control
[24] = biological target: T1, [Pyruvate dehydrogenase (acetyl-transferring)] kinase isozyme 1, mitochondrial; assay: Inhibition of PDK1 in human NCI-H1975 cells assessed as switch of pyruvate metabolism from lactate production to oxidative phosphorylation by measuring increase in basal oxygen consumption rate at 20 uM incubated for 4 hrs followed by oligomycin addition for 1 hr measured for 16 mins; format: cell-based
[25] = biological target: T1, [Pyruvate dehydrogenase (acetyl-transferring)] kinase isozyme 1, mitochondrial; assay: Inhibition of PDK1 in human NCI-H1975 cells assessed as switch of pyruvate metabolism from lactate production to oxidative phosphorylation by measuring increase in basal oxygen consumption rate at 20 uM incubated for 4 hrs followed by FCCP addition for 1 hr measured for 16 mins; format: cell-based
[26] = biological target: T1, [Pyruvate dehydrogenase (acetyl-transferring)] kinase isozyme 1, mitochondrial; assay: Inhibition of PDK1 in human NCI-H1975 cells assessed as switch of pyruvate metabolism from lactate production to oxidative phosphorylation by measuring decrease in extracellular acidification rate at 20 uM pretreated for 4 hrs followed by oligomycin addition for 1 hr measured for 16 mins; format: cell-based
[27] = biological target: T1, [Pyruvate dehydrogenase (acetyl-transferring)] kinase isozyme 1, mitochondrial; assay: Inhibition of PDK1 in human NCI-H1975 cells assessed as switch of pyruvate metabolism from lactate production to oxidative phosphorylation by measuring decrease in extracellular acidification rate at 20 uM pretreated for 4 hrs followed by glucose addition for 1 hr measured for 16 mins; format: cell-based
[28] = biological target: T1, [Pyruvate dehydrogenase (acetyl-transferring)] kinase isozyme 1, mitochondrial; assay: Inhibition of PDK1 in human NCI-H1975 cells assessed as switch of pyruvate metabolism from lactate production to oxidative phosphorylation by measuring increase in basal oxygen consumption rate at 20 uM incubated for 4 hrs followed by antimycinA addition for 1 hr measured for 16 mins; format: cell-based
[29] = biological target: T1, [Pyruvate dehydrogenase (acetyl-transferring)] kinase isozyme 1, mitochondrial; assay: Inhibition of PDK1 in human NCI-H1975 cells assessed as switch of pyruvate metabolism from lactate production to oxidative phosphorylation by measuring increase in basal oxygen consumption rate at 20 uM incubated for 4 hrs measured for 16 mins; format: cell-based
[30] = organism: Sus scrofa; assay: Inhibition of porcine PDK1 assessed as activation of pyruvate dehydrogenase complex at 1 uM measured after 3 mins
[31] = biological target: T1, [Pyruvate dehydrogenase (acetyl-transferring)] kinase isozyme 1, mitochondrial; assay: Inhibition of PDK1 in human NCI-H1975 cells assessed as reduction in pyruvate dehydrogenase phosphorylation at 10 uM after 24 hrs by Western blot analysis; format: cell-based
[32] = biological target: T1, [Pyruvate dehydrogenase (acetyl-transferring)] kinase isozyme 1, mitochondrial; assay: Inhibition of PDK1 in human NCI-H1975 cells assessed as switch of pyruvate metabolism from lactate production to oxidative phosphorylation by measuring decrease in extracellular acidification rate at 20 uM pretreated for 4 hrs followed by 2DG addition for 1 hr measured for 16 mins; format: cell-based
[33] = biological target: T1, [Pyruvate dehydrogenase (acetyl-transferring)] kinase isozyme 1, mitochondrial; assay: Inhibition of PDK1 in human NCI-H1975 cells assessed as switch of pyruvate metabolism from lactate production to oxidative phosphorylation by measuring increase in basal oxygen consumption rate at 2.5 to 5 uM incubated for 4 hrs measured for 16 mins; format: cell-based
[34] = biological target: T1, [Pyruvate dehydrogenase (acetyl-transferring)] kinase isozyme 1, mitochondrial; assay: Inhibition of PDK1 in human NCI-H1975 cells assessed as switch of pyruvate metabolism from lactate production to oxidative phosphorylation by measuring increase in proton leak at 5 uM incubated for 4 hrs followed by oligomycin addition for 1 hr measured for 16 mins; format: cell-based
[35] = biological target: T1, [Pyruvate dehydrogenase (acetyl-transferring)] kinase isozyme 1, mitochondrial; assay: Inhibition of PDK1 in human NCI-H1975 cells assessed as switch of pyruvate metabolism from lactate production to oxidative phosphorylation by measuring increase in ATP production at 5 uM incubated for 4 hrs followed by oligomycin addition for 1 hr measured for 16 mins; format: cell-based
[36] = biological target: T1, [Pyruvate dehydrogenase (acetyl-transferring)] kinase isozyme 1, mitochondrial; assay: Inhibition of PDK1 in human NCI-H1975 cells assessed as switch of pyruvate metabolism from lactate production to oxidative phosphorylation by measuring increase in maximum respiration at 5 uM incubated for 4 hrs followed by FCCP addition for 1 hr measured for 16 mins; format: cell-based

T1 sequence (Q15118 whole entry): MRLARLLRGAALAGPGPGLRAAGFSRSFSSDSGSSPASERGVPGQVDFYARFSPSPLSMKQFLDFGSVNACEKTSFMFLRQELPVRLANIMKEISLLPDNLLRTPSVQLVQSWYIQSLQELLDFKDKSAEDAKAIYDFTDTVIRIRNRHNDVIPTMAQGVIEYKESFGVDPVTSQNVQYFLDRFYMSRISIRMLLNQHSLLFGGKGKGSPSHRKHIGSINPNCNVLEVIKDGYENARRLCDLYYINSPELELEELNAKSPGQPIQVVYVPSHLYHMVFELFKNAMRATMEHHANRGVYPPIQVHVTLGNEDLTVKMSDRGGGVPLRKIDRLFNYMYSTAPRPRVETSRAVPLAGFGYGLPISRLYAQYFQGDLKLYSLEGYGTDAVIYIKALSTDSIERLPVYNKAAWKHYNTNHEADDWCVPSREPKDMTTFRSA
Epidermal growth factor receptor, sequence (P00533 whole entry): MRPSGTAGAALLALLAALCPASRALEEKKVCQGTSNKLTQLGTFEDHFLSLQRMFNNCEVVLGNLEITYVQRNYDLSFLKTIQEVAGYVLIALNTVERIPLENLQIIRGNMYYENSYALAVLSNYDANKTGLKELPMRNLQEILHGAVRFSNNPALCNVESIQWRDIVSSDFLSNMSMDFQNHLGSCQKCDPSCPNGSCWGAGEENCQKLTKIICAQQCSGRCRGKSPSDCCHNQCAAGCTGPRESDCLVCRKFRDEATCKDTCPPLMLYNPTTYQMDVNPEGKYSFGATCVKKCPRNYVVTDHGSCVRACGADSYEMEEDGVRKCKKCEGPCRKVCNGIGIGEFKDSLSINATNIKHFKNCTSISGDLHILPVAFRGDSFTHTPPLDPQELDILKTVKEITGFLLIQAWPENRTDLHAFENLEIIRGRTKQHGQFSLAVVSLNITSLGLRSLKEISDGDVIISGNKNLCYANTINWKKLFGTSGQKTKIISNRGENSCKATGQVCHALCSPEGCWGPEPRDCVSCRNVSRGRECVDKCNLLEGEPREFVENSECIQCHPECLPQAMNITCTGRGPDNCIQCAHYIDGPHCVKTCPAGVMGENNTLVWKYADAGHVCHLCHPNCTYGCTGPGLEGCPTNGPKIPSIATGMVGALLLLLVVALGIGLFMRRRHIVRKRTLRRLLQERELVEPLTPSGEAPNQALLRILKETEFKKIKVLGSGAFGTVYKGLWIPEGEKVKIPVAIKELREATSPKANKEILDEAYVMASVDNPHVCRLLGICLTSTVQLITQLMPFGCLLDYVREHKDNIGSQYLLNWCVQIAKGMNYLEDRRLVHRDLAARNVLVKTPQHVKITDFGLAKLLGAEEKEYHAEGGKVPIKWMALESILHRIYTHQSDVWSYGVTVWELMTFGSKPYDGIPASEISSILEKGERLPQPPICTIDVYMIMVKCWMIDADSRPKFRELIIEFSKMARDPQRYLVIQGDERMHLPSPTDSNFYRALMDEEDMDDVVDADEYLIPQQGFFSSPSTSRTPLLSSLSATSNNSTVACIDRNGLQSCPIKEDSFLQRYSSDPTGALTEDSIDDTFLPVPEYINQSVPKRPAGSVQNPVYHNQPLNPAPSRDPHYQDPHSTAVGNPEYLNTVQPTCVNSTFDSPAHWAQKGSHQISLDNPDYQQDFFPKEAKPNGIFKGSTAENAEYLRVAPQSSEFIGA
RAC-alpha serine/threonine-protein kinase, sequence (P31749 whole entry): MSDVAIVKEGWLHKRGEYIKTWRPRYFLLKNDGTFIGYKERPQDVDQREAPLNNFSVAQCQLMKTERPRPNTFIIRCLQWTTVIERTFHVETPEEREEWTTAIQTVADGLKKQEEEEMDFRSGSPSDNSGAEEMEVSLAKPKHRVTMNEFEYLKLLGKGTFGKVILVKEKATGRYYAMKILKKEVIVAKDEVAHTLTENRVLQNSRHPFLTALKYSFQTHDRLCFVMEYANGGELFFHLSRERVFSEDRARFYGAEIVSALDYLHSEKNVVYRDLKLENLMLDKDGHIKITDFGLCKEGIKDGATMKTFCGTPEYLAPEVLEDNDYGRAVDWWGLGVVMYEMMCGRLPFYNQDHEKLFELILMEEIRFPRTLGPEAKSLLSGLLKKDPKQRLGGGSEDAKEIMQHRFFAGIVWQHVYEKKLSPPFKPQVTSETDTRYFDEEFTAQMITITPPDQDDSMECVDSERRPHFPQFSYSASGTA

SMILES	inhibition at 2 µM [1]	inhibition (INH) [2]	inhibition [3]	inhibition [4]	inhibition [5]	inhibition [6]	Kd [7]	inhibition at 6 µM [8]	inhibition at 6 µM [9]	inhibition at 12 µM [10]	inhibition at 2 µM [11]	inhibition at 12 µM [12]	inhibition [13]	inhibition at 6 µM [14]	inhibition (INH) [16]	inhibition [17]	IC50 [19]	inhibition at 12 µM [20]	inhibition (INH) [21]	inhibition at 2 µM [22]	also measured
CCc1ccc(C(=O)C(Cl)Cl)cc1[N+](=O)[O-]	20.2%	Not Active	Active	Active	Active	inactive	1290 nM	79.3%	71.4%	100%	35.6%	98.9%	Active	93.2%	Not Active	66.6%	1750 nM	93.7%	Not Active	57%	inhibition [15]: Active; inhibition [18]: Active
CC(C)c1ccc(C(=O)C(Cl)Cl)cc1[N+](=O)[O-]	22.7%	Not Active	Active	Active	Active	inactive	970 nM	90%	75.9%	100%	36.4%	99.5%	Active	95%	Not Active	75.1%	1590 nM	96.5%	Not Active	59.8%	inhibition [15]: Active; inhibition [18]: Active
O=C(c1ccccc1)C(Cl)Cl	9.2%	Active	–	–	–	–	–	31.3%	28.5%	47.9%	15.3%	83.7%	–	54.3%	Active	inactive	7900 nM	54.4%	Active	13.2%	inhibition [23]: 36.6%; inhibition [24]: Active; inhibition [25]: Active; inhibition [26]: inactive; inhibition [27]: inactive; inhibition [28]: inactive; inhibition [29]: Active; inhibition [30]: inactive; inhibition [31]: Active; inhibition [32]: Active
CC(C)Oc1ccc(C(=O)C(Cl)Cl)cc1[N+](=O)[O-]	27.7%	Not Active	Active	Active	Active	inactive	580 nM	95.9%	92.5%	99.5%	48.6%	99.5%	Active	99.1%	Not Active	84.3%	1260 nM	99.7%	Not Active	65.5%	inhibition [33]: Active; inhibition [34]: Active; inhibition [15]: Active; inhibition [30]: Active; inhibition [35]: Active; inhibition [36]: Active; inhibition [18]: Active

Source: ChEMBL document CHEMBL4265965, “Dichloroacetophenones targeting at pyruvate dehydrogenase kinase 1 with improved selectivity and antiproliferative activity: Synthesis and structure-activity relationships” (Bioorg Med Chem Lett, 2018)
